Reference: patent US20200190101A1, “Composition Containing Novel Glutamic Acid Derivative And Block Copolymer, And Use Thereof” (Nippon Kayaku Kabushiki Kaisha, priority 2015, published 2020)
Counter-ions that a name gives are not always drawn. Like-named read-outs stand apart in the source and are kept apart here.

What was measured:
[1] = system: γ-glutamyl transpeptidase (GGT); assay: γ-Glutamyl transpeptidase (GGT) enzyme recognition test; type: biochemical; details: 37° C.
Procedure: To 0.150 mL of this doxorubicin-bonded glutamic acid derivative (prodrug) PBS solution, 0.150 mL of a 2 U/mL GGT solution obtained by dissolving GGT (0.22 mg, 8 U/mg) (Sigma-Aldrich Company) in PBS (0.880 mL) was added, and the mixture was allowed to react at 37° C.
The reaction liquid was analyzed by HPLC, and thus the residual ratio of the doxorubicin-bonded glutamic acid derivative (prodrug) and the production ratio of doxorubicin were determined.
To 0.100 mL of the doxorubicin-bonded glutamic acid derivative PBS solution, 0.100 mL of a 2 U/mL GGT solution obtained by dissolving GGT (0.38 mg, 8 U/mg) (Sigma-Aldrich Company) in PBS (1.520 mL) was added, and the mixture was allowed to react at 37° C. […]

[2] = system: OS-RC-2 cells having high GGT activity; assay: cells; type: cell-based, human
Procedure: (§1) After the cells were incubated for 6 hours, the interior of the wells was washed, and after the cells were further incubated for 3 days, the cells were immobilized with methanol and stained using Methylene Blue dye. After staining, the dye was extracted with a 0.3% aqueous solution of hydrochloric acid was extracted, and the light absorbance at 660 nm was measured. For the light absorbance thus obtained, the cell proliferation suppressive activity was evaluated based on the reduction ratio for the light absorbance measured from cells to which the compound was not added.
(§2) By a similar operation, the cell proliferation suppressive activity was evaluated from the light absorbance, using doxorubicin that was not converted to a glutamic acid derivative. The results are shown in FIG. 1 (OS-RC-2 cells having high GGT activity) and FIG. 2 (SK-OV-3 cells having low GGT activity).
(§3) The cell proliferation inhibitory activity of the EHC-bonded glutamic acid derivative according to Synthesis Example 6 was evaluated using OS-RC-2 cells (RIKEN BioResource Center), which are known to have high GGT activity, and SK-OV-3 cells (American Type Culture Collection), which are known to have low GGT activity.
(§4) On a 96-well plate, OS-RC-2 cells having high GGT activity and SK-OV-3 cells having low GGT activity were each inoculated in an amount of 4,000 cells/well and were incubated for one day at 37° C. and 5% CO2, and then the EHC prodrug according to Synthesis Example 6 was added to the cells at a final concentration of 0.0001 to 1 μM. After the cells were incubated for 6 hours, the interior of the wells was washed, and the cells were further incubated for 3 days. After the incubation, the cells were immobilized with methanol and were stained using Methylene Blue dye. After staining, the dye was extracted with a 0.3% aqueous solution of hydrochloric acid, and the light absorbance at 660 nm was measured. The cell proliferation suppressive activity was evaluated based on the reduction ratio for the light absorbance thus obtained, with respect to the light absorbance measured from cells to which the compound was not added.
(§5) By a similar operation, EHC, which was an active ingredient of Synthesis Example 6, was used without modification, and the cell proliferation suppressive activity was evaluated from the light absorbance.

[3] = system: SK-OV-3 cells having low GGT activity; assay: cells; type: cell-based
Procedure: as §1, §2, §3, §4, §5

[4] = system: OS-RC-2 cells having high GGT activity; type: cell-based, human; details: GGsTop 10 μM
Procedure: OS-RC-2 cells were inoculated by a method similar to that of Test Example 3. […] After the cells were incubated for 6 hours, the interior of the wells was washed, and after the cells were further incubated for 3 days, the cell proliferation suppressive activity was evaluated by a method similar to that of Test Example 3.
By a similar operation, the cell proliferation suppressive activity was evaluated using doxorubicin that was not glutamic acid-derivatized, from the light absorbance of the compound.
The GGT activity dependency of the cell proliferation inhibitory activity of the EHC-bonded glutamic acid derivative according to Synthesis Example 6 was evaluated using OS-RC-2 cells having high GGT activity.
OS-RC-2 cells were inoculated by a method similar to that of Test Example 10. After the cells were incubated for one day, GGsTop (Wako Pure Chemical Industries, Ltd.), which is a GGT inhibitor, was added to the cells at a final concentration of 10 μM, and the cells were incubated for one hour. Subsequently, the EHC-bonded glutamic acid derivative according to Synthesis Example 6 was added to the cells at a final concentration of 0.0001 to 1 μM. After the cells were incubated for 6 hours, the interior of the wells was washed, and after the cells were incubated for 3 days, the cell proliferation suppressive activity was evaluated by a method similar to that of Test Example 10.
By a similar operation, the cell proliferation suppressive activity was evaluated using EHC, which is the active ingredient of Synthesis Example 6, from the light absorbance of the compound.

[5] = Phosphate buffered physiological saline (PBS) solution stability test; type: physicochemical; details: PBS (DMSO stock), 37° C.
Procedure: 0.148 mL of the doxorubicin-bonded glutamic acid derivative PBS solution was dissolved in 0.148 mL of a PBS solution, and the solution was allowed to react at 37° C.
PBS (0.100 mL) was added to the EHC-bonded glutamic acid derivative solution (0.100 mL), and the mixture was allowed to react at 37° C. The reaction liquid was analyzed by HPLC, and thereby the residual ratio of the EHC-bonded glutamic acid derivative was determined.
PBS (0.117 mL) was added to the camptothecin-bonded glutamic acid derivative solution (0.117 mL), and the mixture was allowed to react at 37° C. The reaction liquid was analyzed by HPLC, and thereby the residual ratio of the glutamic acid derivative was determined.
The reaction liquid was analyzed by HPLC, and thereby the residual ratio of the EHC-bonded glutamic acid derivative was determined.

[6] = type: in vitro ADME; details: 24 h, 0.0856 mg/mL
Procedure: Mouse blood plasma (0.180 mL) was added to a 0.856 mg/mL DMSO solution of the EHC-bonded glutamic acid derivative of Synthesis Example 6 (0.020 mL), and the mixture was allowed to react at 37° C.
The reaction liquid was analyzed by HPLC, and thereby the residual ratio of the EHC-bonded glutamic acid derivative was determined. 94% of the EHC-bonded glutamic acid derivative prodrug remained after 24 hours.

[7] = Test on pharmacokinetics of Synthesis Example 6 (tissue AUC, OS-RC-2 tumor-bearing mice); design: species or system SCID mice; details: mouse, in vivo
Procedure: Human renal cell cancer OS-RC-2 tumors that had been subcutaneously subcultured in SCID mice were produced into blocks that measured about 2 mm on each side, and the blocks were subcutaneously transplanted into SCID mice using a trocar.
At time points of 5 minutes, 1 hour, 3 hours, and 6 hours after the administration, various tissues such as blood plasma, liver, bone marrow, and tumor were collected under ether anesthesia. The drug concentrations of EHC as an active drug of Synthesis Example 6, the unchanged drug of Synthesis Example 6, and the unchanged drug of CPT-11 in the various tissues were quantitatively analyzed by a LC-MS/MS method under the following measuring instrument and conditions.
From the concentrations of EHC, the EHC-bonded glutamic acid derivative according to Synthesis Example 6, and CPT-11 in the tissues at various time points, the AUC0-6 hr (μg·hr/mL or g) values of the various components up to 6 hours after the initiation of administration were calculated. As the prodrug activation rates of Synthesis Example 6 and CPT-11 in the various tissues, the AUC0-6 hr ratios of the active drug with respect to the unchanged drug (AUCEHC/AUCSynthesis Example 6 unchanged drug, and AUCEHC/AUCCPT-11) were determined.

[8] = system: human renal cell cancer OS-RC-2; assay: Test on antitumor effect of Synthesis Example 6, OS-RC-2; type: in vivo, SCID mice; details: three times at an interval of 4 days
Procedure: By an operation similar to that of Test Example 15, to those mice having human renal cell cancer OS-RC-2 transplanted thereinto, the EHC-bonded glutamic acid derivative of Synthesis Example 6 was intravenously administered through the caudal vein, on the 17th day after tumor transplantation, at a dose of 20, 40, or 80 mg/kg three times in total at an interval of 4 days.
(§6) After the administration, the major axis (L) and the minor axis (W) of a tumor were measured using calipers at an interval of 2 to 3 days, the tumor volume was calculated by the formula: (L×W^2)/2, and the tumor volume change rate from the administration initiation day was determined.

[9] = system: human ovarian cancer SHIN-3 tumors; assay: Test on antitumor effect of Synthesis Example 1, SHIN-3 tumors; type: in vivo; details: 5 mg/kg i.v., at an interval of 7 days
Procedure: By an operation similar to that of Test Example 12, human ovarian cancer SHIN-3 tumors were subcutaneously transplanted into SCID mice, and tumor engraftment was confirmed.
as §6

[10] = after 6 hours, 2 mM PBS solution + 2 U/mL GGT solution

COc1cccc2c1C(=O)c1c(O)c3c(c(O)c1C2=O)C[C@@](O)(C(=O)CO)C[C@@H]3O[C@H]1C[C@H](NC(=O)CC[C@H](N)C(=O)O)[C@H](O)[C@H](C)O1 [Comparative Example 1, (S)-(4-amino-4-carboxybutanamido)doxorubicin, reference compound]
Residual ratio of the glutamic acid derivative [1, 10]: 93%

CC[C@@]1(O)C(=O)OCc2c1cc1n(c2=O)Cc2cc3c(NC(=O)CC[C@H](N)C(=O)O)cccc3nc2-1 [Comparative Example 2, 9-((S)-4-amino-4-carboxybutanamido)camptothecin, reference compound]
Residual ratio of the glutamic acid derivative [1, 10]: 99%

CCc1c2c(nc3ccc(O)cc13)-c1cc3c(c(=O)n1C2)COC(=O)[C@]3(O)CC [EHC, 7-ethyl-10-hydroxycamptothecin, reference compound]
Cell proliferation inhibitory activity ([2]; OS-RC-2 cells, 0.01 μM, 6 hours exposure then 3 days incubation): 26% | Cell proliferation inhibitory activity ([3]; SK-OV-3 cells, 0.01 μM, 6 hours exposure then 3 days incubation): 27.7% | Effect of GGT inhibitor on cell proliferation suppressive activity ([4]; compound 0.0001 to 1 μM): did not affect the cell proliferation suppressive activity

CCc1c2c(nc3ccc(OC(=O)OCc4ccc(NC(=O)CC[C@H](N)C(=O)O)cc4)cc13)-c1cc3c(c(=O)n1C2)COC(=O)[C@]3(O)CC [Synthesis Example 2, (((4-((S)-4-amino-4-carboxybutanamido)benzyl)oxy)carbonyl)-10-oxy-7-ethylcamptothecin]
Residual ratio of the glutamic acid derivative in PBS ([5]; after 3.5 hours): 52%

CC[C@@]1(OC(=O)OCc2ccc(NC(=O)CC[C@H](N)C(=O)O)cc2)C(=O)OCc2c1cc1n(c2=O)Cc2cc3ccccc3nc2-1 [Synthesis Example 3, (((4-((S)-4-amino-4-carboxybutanamido)benzyl)oxy)carbonyl)camptothecin]
Residual ratio of the glutamic acid derivative in PBS ([5]; after 3 hours): 74%

COc1cccc2c1C(=O)c1c(O)c3c(c(O)c1C2=O)CC(O)(C(=O)CO)CC3OC1CC(NC(=O)OCc2ccc(NC(=O)CCC(N)C(=O)O)cc2)C(O)C(C)O1 [Synthesis Example 4, (((4-((S)-4-amino-4-carboxybutanamido)benzyl)oxy)carbonyl)epirubicin]
Residual ratio of the glutamic acid derivative [1, 10]: 5%

N[C@@H](CCC(=O)Nc1ccc(COC(=O)Nc2ccn([C@@H]3O[C@H](CO)C(O)[C@H]3O)c(=O)n2)cc1)C(=O)O (stereo partly drawn) [Synthesis Example 5, (((4-((S)-4-amino-4-carboxybutanamido)benzyl)oxy)carbonyl)cytarabine]
Residual ratio of the glutamic acid derivative ([1]; after 6.5 hours, 1 mM PBS solution + 2 U/mL GGT solution): 34%

CCc1c2c(nc3ccc(OCc4ccc(NC(=O)CC[C@H](N)C(=O)O)cc4)cc13)-c1cc3c(c(=O)n1C2)COC(=O)[C@]3(O)CC [Synthesis Example 6, 10-(4-((S)-4-amino-4-carboxybutanamido)benzyloxy)-7-ethylcamptothecin ditrifluoroacetate]
Disappearance of the glutamic acid derivative and production of EHC by GGT ([1]; 0.34 mg/mL DMSO solution diluted with PBS + 0.227 mg/mL GGT solution): rapidly disappeared in one hour of the reaction and produced EHC | Residual ratio of the glutamic acid derivative in PBS ([5]; after 24 hours): 90% | Residual ratio of the glutamic acid derivative in mouse blood plasma [6]: 94% | inhibition at 0.01 µM ([2]; Homo sapiens, OS-RC-2, read-out: Cell proliferation inhibitory activity): 25% | inhibition at 0.01 µM ([3]; Homo sapiens, SK-OV-3, read-out: Cell proliferation inhibitory activity): 1.3% | Effect of GGT inhibitor on cell proliferation suppressive activity ([4]; compound 0.0001 to 1 μM): inhibited the activity | Activation rate AUCEHC/AUC unchanged drug [7]: 0.03-0.16 times | Antitumor effect (relative tumor volume) ([8]; 80 mg/kg-administered group, i.v.): noticeable tumor regression effect | Antitumor effect (relative tumor volume) ([8]; 20, 40, or 80 mg/kg i.v.): dose-dependent antitumor effect

COc1cccc2c1C(=O)c1c(O)c3c(c(O)c1C2=O)C[C@@](O)(C(=O)CO)C[C@@H]3O[C@H]1C[C@H](N)[C@H](O)[C@H](C)O1 [doxorubicin hydrochloride, reference compound]
Toxicity (death of mice) [9]: the mice died after the second administration due to toxicity

COc1cccc2c1C(=O)c1c(O)c3c(c(O)c1C2=O)C[C@@](O)(C(=O)CO)C[C@@H]3O[C@H]1C[C@H](N)[C@H](O)[C@H](C)O1 [doxorubicin, reference compound]
inhibition at 10 µM ([2]; Homo sapiens, OS-RC-2 cells, 10 μM, 6 hours exposure then 3 days incubation, read-out: Cell proliferation inhibitory activity): 77% | inhibition at 10 µM ([3]; Homo sapiens, SK-OV-3 cells, 10 μM, 6 hours exposure then 3 days incubation, read-out: Cell proliferation inhibitory activity): 77% | Effect of GGT inhibitor on cell proliferation suppressive activity ([4]; compound 0.039 to 10 μM): did not affect the cell proliferation suppressive activity
